In US8476439B2, “Pyridine classical cannabinoid compounds and related methods of use” (priority 2008, dated 2013):

System: glioblastoma brain cancer cell line LN-229
Assay: Cytotoxicity assay (CCK8 viability)
Type: cell-based
Details: Homo sapiens, cytotoxicity against LN-229, 18 hours incubation, 1% FBS media
Procedure: Cytoxocity assay: Cells were seeded on a 96 well polystyrene plate in full serum media at a density of 75,000 cells per milliliter, 100 μL per well. Plates were incubated at 37° C. and 5% CO2 for 24 hours to allow cell attachment. Drug solutions were prepared in DMSO at 100× concentration and mixed 1:100 in 1% FBS media to yield the desired concentration. Drug-media mixtures were vortexed immediately prior to administration to cells. Full serum media was removed and replaced with drug-media mixtures and incubated for 18 hours. 10 μL of Cell Counting Kit 8 (CCK8, Dojindo# CK04-11) was added to each well to colormetrically assess viability. After 2-4 hours of incubation with the CCK8 dye, absorbance was read at 450 nm by a BioTek Synergy 2 plate reader.
The cytotoxicity of selected compounds against the glioblastoma brain cancer cell line LN-229 is depicted in Table 1.

With `CCCCCCC(C)(C)c1cc2c(c(O)n1)[C@@H]1C[C@H](C)CC[C@@H]1C(C)(C)O2` [Compound 6b, (6aS,9R,10aR)-6,6,9-trimethyl-3-(2-methyloctan-2-yl)-6a,7,8,9,10,10a-hexahydro-6H-isochromeno[4,3-c]pyridin-1-ol] the EC50 was 2430 nM.

In the case of `CCCCCCC(C)(C)c1cc2c(c(O)n1)[C@H]1C[C@@H](C)CC[C@H]1C(C)(C)O2` [Compound 6c, (6aR, 9S, 10aS)-6,6,9-trimethyl-3-(2-methyloctan-2-yl)-6a,7,8,9,10,10a-hexahydro-6H-isochromeno[4,3-c]pyridin-1-ol], the EC50 is reported as 1830 nM.
